Test results published in ChEMBL document CHEMBL3616368, “Induction of apoptosis by genipin inhibits cell proliferation in AGS human gastric cancer cells via Egr1/p21 signaling pathway” (Bioorg Med Chem Lett, 2015).
Activity calls are given as the source filed them. The calls are words filed in the database; no cut-off is given here.

Experiments:
[1] = target: Early growth response protein 1 (Homo sapiens) (UniProt P18146); assay: Activation of Egr1 in human AGS cells assessed as upregulation of p21 expression at 50 to 100 uM by Western blot analysis in presence of si-Egr1; format: cell-based
Early growth response protein 1 (Homo sapiens), sequence (P18146 whole entry, looked up): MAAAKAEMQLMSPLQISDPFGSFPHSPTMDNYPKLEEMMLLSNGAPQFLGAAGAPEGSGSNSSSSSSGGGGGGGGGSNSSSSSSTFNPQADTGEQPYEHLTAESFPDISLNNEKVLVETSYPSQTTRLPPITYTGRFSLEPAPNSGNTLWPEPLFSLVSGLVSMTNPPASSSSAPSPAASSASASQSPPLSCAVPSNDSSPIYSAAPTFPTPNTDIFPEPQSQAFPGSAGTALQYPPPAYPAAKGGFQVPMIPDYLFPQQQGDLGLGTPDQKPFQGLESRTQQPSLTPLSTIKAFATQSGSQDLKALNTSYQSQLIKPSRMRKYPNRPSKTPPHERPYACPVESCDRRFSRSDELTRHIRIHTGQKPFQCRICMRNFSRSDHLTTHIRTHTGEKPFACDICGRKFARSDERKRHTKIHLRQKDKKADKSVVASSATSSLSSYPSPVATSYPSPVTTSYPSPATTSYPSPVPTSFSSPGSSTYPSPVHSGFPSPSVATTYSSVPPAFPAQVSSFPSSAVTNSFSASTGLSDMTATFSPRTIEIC

[2] = system: HEK293; assay: Induction of apoptosis in HEK293 cells assessed as increase in cleaved caspase-9 level at 100 uM by Western blot analysis; format: cell-based; conditions: human, hek293, 100 µM
[3] = target: Early growth response protein 1 (Homo sapiens) (UniProt P18146); assay: Activation of Egr1 in human AGS cells assessed as increase in cleaved caspase-3 level at 50 to 100 uM by Western blot analysis in presence of si-Egr1; format: cell-based
[4] = system: AGS; assay: Cell cycle arrest in human AGS cells assessed as accumulation at G0/G1 phase at 25 uM after 6 hrs by propidium iodide staining-based flow cytometric analysis (reference value: 52.82 +/- 2.87%); format: functional
[5] = target: Early growth response protein 1 (Homo sapiens) (UniProt P18146); assay: Activation of Egr1 in human AGS cells assessed as increase in loss of mitochondrial membrane potential after 6 hrs by Rh-123 staining-based flow cytometric analysis relative to control; format: cell-based
[6] = system: AGS; assay: Cell cycle arrest in human AGS cells assessed as accumulation at G0/G1 phase at 100 uM after 6 hrs by propidium iodide staining-based flow cytometric analysis (reference value: 52.82 +/- 2.87%); format: functional
[7] = system: AGS; assay: Cell cycle arrest in human AGS cells assessed as accumulation at G2/M phase at 50 uM after 6 hrs by propidium iodide staining-based flow cytometric analysis (reference value: 23.05 +/- 3.15%); format: functional
[8] = system: AGS; assay: Cell cycle arrest in human AGS cells assessed as accumulation at G2/M phase at 12.5 uM after 6 hrs by propidium iodide staining-based flow cytometric analysis (reference value: 23.05 +/- 3.15%); format: functional
[9] = target: Early growth response protein 1 (Homo sapiens) (UniProt P18146); assay: Activation of Egr1 in human AGS cells assessed as upregulation of protein expression by Western blot analysis; format: cell-based
[10] = system: AGS; assay: Cell cycle arrest in human AGS cells assessed as accumulation at G2/M phase at 100 uM after 6 hrs by propidium iodide staining-based flow cytometric analysis (reference value: 23.05 +/- 3.15%); format: functional
[11] = system: AGS; assay: Cell cycle arrest in human AGS cells assessed as accumulation at G2/M phase at 25 uM after 6 hrs by propidium iodide staining-based flow cytometric analysis (reference value: 23.05 +/- 3.15%); format: functional
[12] = target: Early growth response protein 1 (Homo sapiens) (UniProt P18146); assay: Activation of Egr1 in human AGS cells assessed as downregulation of cyclin E expression at 12.5 to 100 uM by Western blot analysis; format: cell-based
[13] = target: Early growth response protein 1 (Homo sapiens) (UniProt P18146); assay: Activation of Egr1 in human AGS cells assessed as upregulation of protein expression at 50 to 100 uM by Western blot analysis in presence of si-Egr1; format: cell-based
[14] = system: AGS; assay: Upregulation of Egr1 mRNA expression in human AGS cells at 50 to 100 uM by RT-qPCR analysis in presence of si-Egr1 relative to control; format: functional, cell-based
[15] = system: AGS; assay: Cell cycle arrest in human AGS cells assessed as accumulation at S phase at 12.5 uM after 6 hrs by propidium iodide staining-based flow cytometric analysis (reference value: 21.40 +/- 2.87%); format: functional
[16] = target: Early growth response protein 1 (Homo sapiens) (UniProt P18146); assay: Activation of Egr1 in human AGS cells assessed as increase in interaction with p21 promoter by ChIP assay; format: cell-based
[17] = target: Early growth response protein 1 (Homo sapiens) (UniProt P18146); assay: Activation of Egr1 in human AGS cells assessed as increase in intracellular accumulation of reactive oxygen species at 100 uM by H2DCFDA probe-based flow cytometric analysis relative to control; format: cell-based
[18] = system: AGS; assay: Cell cycle arrest in human AGS cells assessed as accumulation at G2/M phase after 6 hrs by propidium iodide staining-based flow cytometric analysis; format: functional
[19] = system: AGS; assay: Cell cycle arrest in human AGS cells assessed as accumulation at G0/G1 phase at 50 uM after 6 hrs by propidium iodide staining-based flow cytometric analysis (reference value: 52.82 +/- 2.87%); format: functional
[20] = system: HEK293; assay: Induction of apoptosis in HEK293 cells assessed as increase in cleaved PARP level at 100 uM by Western blot analysis; format: cell-based; conditions: human, hek293, 100 µM
[21] = system: AGS; assay: Cell cycle arrest in human AGS cells assessed as accumulation at S phase at 25 uM after 6 hrs by propidium iodide staining-based flow cytometric analysis (reference value: 21.40 +/- 2.87%); format: functional
[22] = target: Early growth response protein 1 (Homo sapiens) (UniProt P18146); assay: Activation of Egr1 in human AGS cells assessed as increase in cleaved caspase-3 level at 100 uM by Western blot analysis in presence of caspase-3 inhibitor Ac-DEVD-CHO; format: cell-based
[23] = target: Early growth response protein 1 (Homo sapiens) (UniProt P18146); assay: Activation of Egr1 in human AGS cells assessed as upregulation of p21 mRNA expression by RT-qPCR analysis; format: cell-based
[24] = system: HEK293; assay: Induction of apoptosis in HEK293 cells assessed as increase in cleaved caspase-7 level at 100 uM by Western blot analysis; format: cell-based; conditions: human, hek293, 100 µM
[25] = target: Early growth response protein 1 (Homo sapiens) (UniProt P18146); assay: Activation of Egr1 in human AGS cells assessed as upregulation of p21 mRNA expression at 50 to 100 uM by RT-qPCR analysis in presence of si-Egr1 relative to control; format: cell-based
[26] = target: Early growth response protein 1 (Homo sapiens) (UniProt P18146); assay: Activation of Egr1 in human AGS cells transfected with p21-pcDNA3 assessed as increase in intracellular accumulation of reactive oxygen species at 100 uM by H2DCFDA probe-based flow cytometric analysis relative to control; format: cell-based
[27] = target: Early growth response protein 1 (Homo sapiens) (UniProt P18146); assay: Activation of Egr1 in human AGS cells assessed as upregulation of protein expression after 6 hrs by DAPI staining-based fluorescence microscopic analysis; format: cell-based
[28] = target: Early growth response protein 1 (Homo sapiens) (UniProt P18146); assay: Activation of Egr1 in human AGS cells assessed as induction of p21 promoter activity by ChIP assay; format: cell-based
[29] = target: Early growth response protein 1 (Homo sapiens) (UniProt P18146); assay: Activation of Egr1 in human AGS cells transfected with p21-pcDNA3 assessed as increase in cleaved PARP level at 50 to 100 uM by Western blot analysis; format: cell-based
[30] = target: Early growth response protein 1 (Homo sapiens) (UniProt P18146); assay: Activation of Egr1 in human AGS cells assessed as increase in cleaved PARP level at 100 uM by Western blot analysis; format: cell-based
[31] = system: AGS; assay: Cell cycle arrest in human AGS cells assessed as accumulation at G0/G1 phase at 12.5 uM after 6 hrs by propidium iodide staining-based flow cytometric analysis (reference value: 52.82 +/- 2.87%); format: functional
[32] = system: HEK293; assay: Induction of apoptosis in HEK293 cells assessed as increase in cleaved caspase-3 level at 100 uM by Western blot analysis; format: cell-based; conditions: human, hek293, 100 µM
[33] = target: Early growth response protein 1 (Homo sapiens) (UniProt P18146); assay: Activation of Egr1 in human AGS cells assessed as increase in cleaved caspase-7 level at 100 uM by Western blot analysis; format: cell-based
[34] = target: Early growth response protein 1 (Homo sapiens) (UniProt P18146); assay: Activation of Egr1 in human AGS cells assessed as induction of p21 promoter activity by dual luciferase reporter gene assay; format: cell-based
[35] = target: Early growth response protein 1 (Homo sapiens) (UniProt P18146); assay: Activation of Egr1 in human AGS cells assessed as increase in interaction with p21 promoter by dual luciferase reporter gene assay; format: cell-based
[36] = target: Early growth response protein 1 (Homo sapiens) (UniProt P18146); assay: Activation of Egr1 in human AGS cells assessed as increase in cleaved caspase-3 level at 100 uM by Western blot analysis; format: cell-based
[37] = system: AGS; assay: Cell cycle arrest in human AGS cells assessed as accumulation at S phase at 100 uM after 6 hrs by propidium iodide staining-based flow cytometric analysis (reference value: 21.40 +/- 2.87%); format: functional
[38] = system: AGS; assay: Cytotoxicity against human AGS cells assessed as cell viability at 100 uM after 6 hrs by MTT assay; format: functional, cell-based
[39] = system: AGS; assay: Cytotoxicity against human AGS cells transfected with p21-pcDNA3 assessed as cell viability at 12.5 to 100 uM after 6 hrs by MTT assay relative to control; format: functional, cell-based
[40] = target: Early growth response protein 1 (Homo sapiens) (UniProt P18146); assay: Activation of Egr1 in human AGS cells assessed as downregulation of cyclin A expression at 12.5 to 100 uM by Western blot analysis; format: cell-based
[41] = target: Early growth response protein 1 (Homo sapiens) (UniProt P18146); assay: Activation of Egr1 in human AGS cells assessed as upregulation of p21 expression by Western blot analysis; format: cell-based
[42] = system: HEK293; assay: Cytotoxicity against HEK293 cells assessed as reduction in cell viability at 12.5 to 100 uM after 6 hrs by MTT assay; format: cell-based; conditions: human, hek293, 6 h
[43] = system: AGS; assay: Cell cycle arrest in human AGS cells assessed as accumulation at S phase at 50 uM after 6 hrs by propidium iodide staining-based flow cytometric analysis (reference value: 21.40 +/- 2.87%); format: functional
[44] = target: Early growth response protein 1 (Homo sapiens) (UniProt P18146); assay: Activation of Egr1 in human AGS cells assessed as increase in cleaved caspase-9 level at 100 uM by Western blot analysis; format: cell-based
[45] = target: Early growth response protein 1 (Homo sapiens) (UniProt P18146); assay: Activation of Egr1 in human AGS cells assessed as induction of p21 promoter activity at 12.5 to 100 uM by dual luciferase reporter gene assay in presence of si-Egr1; format: cell-based
[46] = system: AGS; assay: Cytotoxicity against human AGS cells assessed as reduction in cell viability after 6 hrs by MTT assay; format: functional, cell-based
[47] = system: AGS; assay: Cytotoxicity against human AGS cells assessed as cell viability at 100 uM after 6 hrs by MTT assay in presence of si-Egr1; format: functional, cell-based
[48] = system: AGS; assay: Upregulation of Egr1 mRNA expression in human AGS cells by RT-qPCR analysis; format: functional, cell-based
[49] = system: AGS; assay: Cytotoxicity against human AGS cells assessed as cell viability at 100 uM after 6 hrs by MTT assay in presence of caspase-3 inhibitor Ac-DEVD-CHO; format: functional, cell-based

Activity [1]: inactive
Activity [3]: inactive
Activity [5]: Dose-dependent effect
Activity [9]: Dose-dependent effect
Activity [12]: Active
Activity [13]: inactive
Activity [16]: Dose-dependent effect
Activity [17]: Active
Activity [22]: inactive
Activity [23]: Dose-dependent effect
Activity [25]: inactive
Activity [26]: Active
Activity [27]: Dose-dependent effect
Activity [28]: Dose-dependent effect
Activity [29]: Active
Activity [30]: Active
Activity [33]: Active
Activity [34]: Dose-dependent effect
Activity [35]: Dose-dependent effect
Activity [36]: Active
Activity [40]: Active
Activity [41]: Dose-dependent effect
Activity [44]: Active
Activity [45]: inactive
SMILES: COC(=O)C1=CO[C@@H](O)[C@@H]2C(CO)=CC[C@H]12 [GENIPIN]
Activity [2]: Non-toxic
Activity [4]: 42.33%
Activity [6]: 36.88%
Activity [7]: 33.53%
Activity [8]: 26.34%
Activity [10]: 33%
Activity [11]: 30.53%
Activity [14]: inactive
Activity [15]: 22.67%
Activity [18]: Dose-dependent effect
Activity [19]: 35.97%
Activity [20]: Non-toxic
Activity [21]: 24.66%
Activity [24]: Non-toxic
Activity [31]: 48.45%
Activity [32]: Non-toxic
Activity [37]: 27.48%
Activity [38]: Active
Activity [39]: Active
Activity [42]: Non-toxic
Activity [43]: 28.54%
Activity [46]: Dose-dependent effect
Activity [47]: inactive
Activity [48]: Dose-dependent effect
Activity [49]: inactive
